Each structure is given as a SMILES string.

The test system of one test is wildtype mice. Particulars: d-amphetamine at the same dose as in coloboma mice; cited from earlier work.
Test [1] deals with coloboma mutant mice (Cm/+). The experiment in a line: Open field test, coloboma mutant mice. It counts as in vivo, mouse. Conditions: for frequency of zone crossings / total distance traveled / locomotor activity: final 30 min. From the text:
(§1) Male and female mice heterozygous for the coloboma spontaneous mutation (C3H/HeSnJ-Cm/J) and wild type (C3H/HeSNJ) mice from Jackson Laboratories (Bar Harbor, Me.) were used in this study. Upon receipt, mice were assigned unique identification numbers (tail marked) and were housed in polycarbonate cages with filter tops. All mice were acclimated to the colony room for at least two weeks prior to testing. During the period of acclimation, mice were examined on a regular basis, handled, and weighed to assure adequate health and suitability. Mice were maintained on a 12/12 light/dark cycle. Chow and water were provided ad libitum for the duration of the study. In each test, animals were randomly assigned across treatment groups and balanced by age and by gender. Animals were not disturbed between test days.
(§2) The open field test (OF) is used to assess both anxiety-like behavior and motor activity. The open field chambers are Plexiglas square chambers (27.3×27.3×20.3 cm; Med Associates Inc., St Albans, Vt.) surrounded by infrared photobeam sources (16×16×16). The enclosure was configured to split the open field into a center and periphery zone and the photocell beams were set to measure activity in the center and in the periphery of the OF chambers. Animals having higher levels of anxiety or lower levels of activity tend to stay in the corners of the OF enclosures. On the other hand, mice that have high levels of activity and low levels of anxiety tend to spend more time in the center of the enclosure. Distance traveled is measured from consecutive beam breaks. Measures of peripheral or central distance covered during locomotion were used as an index of activity.
(§3) ABPA (0.3, 3 and 30 mg/kg) and atomoxetine (0.1 mg/kg) were dissolved in saline and administered i.p. at the injection volume of 10 ml/kg. Mice were pretreated with saline, ABPA, or atomoxetine for 30 min, after which their behavior was recorded in the OF chambers for a 60-min test session. At the end of each open field test session the OF chambers were thoroughly cleaned with Clorox wipes. Mice were returned to their home cage after testing and then to the colony room. Mice were retested every week. The washout period between tests ranged from 3-7 days. Data were analyzed by analysis of variance (ANOVA), followed by Fisher PLSD post-hoc analysis when appropriate. An effect was considered significant if p<0.05. Outliers that fell above and below two standard deviations away from the mean were removed from the final analysis.
Since the effects of all drugs reached a stable response by 20-30 min following the start of the experiment, the data was analyzed in 2 time periods: 1) total 60 min test session and 2) the last 30 min of the test session. The quantified data over the final 30 min time period are presented. Repeated measure ANOVA found a significant genotype and drug interaction over both time periods. As measured by total distance traveled, the coloboma mice had roughly 6- to 10-fold higher saline-induced activity compared to the wildtype mice (11,246±3213 centimeters vs. 1035±252 centimeters, FIGS. 3A and 3B).

The next test has as its system coloboma mice (Cm/+). Conditions: open field test; d-amphetamine at low doses; cited from earlier work.
Test [2] deals with striatal dopamine release. Particulars: administration in the substantia nigra pars reticulata (SNr); cited from earlier work.
For test [3], the system named is coloboma mutant mice (Cm/+). Description: Open field test, coloboma mutant mice. It counts as in vivo, mouse. Particulars: parallel experiments.
Test [4] has as its system wildtype mice (C3H/HeSNJ). Description: Open field test, wildtype mice. It counts as in vivo, mouse. Particulars: for locomotor activity of wildtype controls: final 30 min.
Text: as §1, §2
as §3, with “The washout period between tests ranged from 3-7 days.” left out, “An effect was considered significant if p<0.05. Outliers that fell above and below two standard deviations away from the mean were removed from the final analysis.” left out
Since the effects of all drugs reached a stable response by 20-30 min following the start of the experiment, the data was analyzed in 2 time periods: 1) total 60 min test session and 2) the last 30 min of the test session. The quantified data over the final 30 min time period are presented. […] As measured by total distance traveled, the coloboma mice had roughly 6- to 10-fold higher saline-induced activity compared to the wildtype mice (11,246±3213 centimeters vs. 1035±252 centimeters, FIGS. 3A and 3B).

Test [5] has as its system dopamine (DA) neurons in the ventral tegmental area (VTA). Conditions: systemic administration; cited from earlier work.
Test [6] deals with patients with mild cognitive impairment (MCI). Description: Rapid Visual Information Processing (RVIP) test (CANTAB), clinical trial. It counts as in vivo, human. Conditions: 600 mg tid. As to the method:
A clinical trial was initiated to determine the effect of the GABAB receptor antagonist, ABPA, on specific tests of cognition in non-demented older individuals with diminished memory function who met prospective criteria for mild cognitive impairment (MCI). Patients aged 60-85 with MCI enrolled in this double-blind, randomized trial. Patients were randomized to ABPA (600 mg tid) or placebo for 8 weeks. Verbal, paper and computer tests of memory and cognition were made by trained assessors at baseline (before administration of ABPA or placebo) and after 2, 5, and 8 weeks of treatment. Among these were selected tests from the Cambridge Neuropsychological Test Automated Battery (CANTAB), a computerized battery of tests for neuropsychological evaluation (Robbins et al., 1994, “Cambridge Neuropsychological Test Automated Battery (CANTAB): A factor analytic study of a large sample of normal elderly volunteers,” Dementia 5:266-281). […]
The Rapid Visual Information Processing (RVIP) test is a test of sustained attention with a small working memory component. […] Responses were recorded with a button press. Reaction time, or mean hit latency, for all correct responses was recorded, as were additional signal detection measures (e.g., total hits, total misses and total false alarms). […]

Another test relates to GABAC receptor. Particulars: reported in U.S. Pat. No. 6,632,806; cited from earlier work.
Test [7] relates to patients with mild cognitive impairment (MCI). The experiment in a line: Five Choice Reaction Time test (CANTAB), clinical trial. It counts as in vivo, human. Particulars: 600 mg tid. The method, then:
(§4) A clinical trial was initiated to determine the effect of the GABAB receptor antagonist, ABPA, on specific tests of cognition in non-demented older individuals with diminished memory function who met prospective criteria for mild cognitive impairment (MCI). Patients aged 60-85 with MCI enrolled in this double-blind, randomized trial. Patients were randomized to ABPA (600 mg tid) or placebo for 8 weeks. Verbal, paper and computer tests of memory and cognition were made by trained assessors at baseline (before administration of ABPA or placebo) and after 2, 5, and 8 weeks of treatment. Among these were selected tests from the Cambridge Neuropsychological Test Automated Battery (CANTAB), a computerized battery of tests for neuropsychological evaluation (Robbins et al., 1994, “Cambridge Neuropsychological Test Automated Battery (CANTAB): A factor analytic study of a large sample of normal elderly volunteers,” Dementia 5:266-281). Tests assessing memory, attention and psychomotor speed were administered to the patient by a neuropsychologist or equivalent via a computer with a touch screen, thus testing the individual's cognitive performance rather than ability to use a computer. CANTAB tests have been proven to be highly sensitive and specific in differentiating patients with a number of neurological conditions from each other and from normal controls.
110 patients were randomized; 75 were administered ABPA and 35 were administered placebo (56% men; mean age: 74 years).
The Five Choice Reaction Time test measures the speed of response to the appearance of a visual stimulus. Patients rested their hand on a press-pad placed on the desk directly in front of the computer screen, holding down the press-pad until a brief yellow flash appeared in 1 of the 5 circles located at various positions around the screen. […] The computer recorded 2 measures of response speed: reaction time, which was the time taken to lift the hand from the press-pad, and movement time, which was the latency from press-pad release to the time that the screen was touched. […]

The next test deals with patients with MCI. The experiment in a line: CANTAB tests of psychomotor speed, clinical trials. It counts as in vivo, human. As to the method: as §4
In test [8] the test system is patients diagnosed with adult ADHD. Particulars: cited from earlier work.

Take `CNCC[C@@H](Oc1ccccc1C)c1ccccc1` [atomoxetine]: the “activity levels of wildtype mice” value in the test on wildtype mice is “without affecting activity levels”. Further, the “frequency of zone crossings” value in test [1] (0.1 mg/kg i.p., p=0.06) is recorded as “strong trend to decreasing the zone crossings”. For the same molecule, the total distance traveled entry in test [1] (0.1 mg/kg i.p., final 30 min of 60-min session, vs saline-treated Cm mutants, p=0.03) was “significantly decreased total distance traveled”. The “activity levels / hyperactivity of coloboma mice” value (“activity levels / hyperactivity” below) with coloboma mice (Cm/+) is on record as “reduces hyperactivity”.
With `NCCCCC(=O)O` [5-AVA], in test [2], the “dopamine release in the striatum” value is “increase dopamine release in the striatum”.
As for `C[C@H](N)Cc1ccccc1` [d-amphetamine, dextro-amphetamine], the “activity levels of wildtype mice” value in the test with wildtype mice is recorded as “profound increases in activity”. In the test on coloboma mice (Cm/+), the “activity levels / hyperactivity” value is listed as “reduced”. In addition, the “activity in coloboma mice” value in test [3] (0.5 mg/kg) is reported as “did not reduce activity”. The “activity in coloboma mice” value in [3] (1 mg/kg) is reported as “did not reduce activity”. In test [3] (4 mg/kg), the “activity in coloboma mice” value is “did not reduce activity” and the frequency of rearing entry is listed as “did reduce the frequency of rearing”. Further, in test [4] (parallel experiments), the “activity in control (wildtype) mice” value is recorded as “did increase activity” and the “rearing frequency in control (wildtype) mice” value was “no effect on rearing frequency”.
Turning to `NCC(CC(=O)O)c1ccc(Cl)cc1` (stereo not drawn) [baclofen], the “dopamine release in the striatum” value in test [2] was “decrease in striatal dopamine”.
Turning to `CCOC(OCC)P(=O)(O)CCCN` [CGP 35348], the “burst firing of VTA dopamine neurons” value in test [5] is “long-lasting increase in burst firing”.
`CCCCP(=O)(O)CCCN` [ABPA, 3-aminopropyl-(n-butyl)-phosphinic acid]: the “mean hit latency, mean change from Baseline” value in [6] (Week 5, p=0.03 vs placebo (+15.0)) was -37.3 ms; in [6] (Week 8, p=0.02 vs placebo (−5.9)) it was -61.6 ms. In addition, the “frequency of zone crossings” value is “significant decrease in the frequency of zone crossings” in test [1] (0.3 mg/kg i.p., p=0.04, to within range of saline-treated wildtype); “strong trend to decreasing the zone crossings” in test [1] (3 mg/kg i.p., p=0.06); “significant decrease in the frequency of zone crossings” in test [1] (30 mg/kg i.p., p=0.04, to within range of saline-treated wildtype). Moreover, the “total distance traveled / locomotor activity” value in test [1] (0.3 mg/kg i.p., p=0.07) is “strong trend to decreasing the activity”; in test [1] (3 mg/kg i.p., p=0.03) it was “significantly decreased locomotor activity levels”; in test [1] (30 mg/kg i.p., p=0.03), “significantly decreased locomotor activity levels”. For the same molecule, the GABAC receptor antagonism entry in the test on GABAC receptor is “antagonize”. Further, the “mean reaction time, change compared to baseline” value in test [7] (8 weeks, p=0.002 vs placebo (+9.4)) is on record as −19.7 milliseconds. The “reaction time vs baseline” value is listed as “Decreased reaction time” in test [7] (Week 2, p=0.074 vs placebo) and “Decreased reaction time” in test [7] (Week 5, p=0.070 vs placebo). Moreover, the “locomotor activity of wildtype controls” value in [4] (3 mg/kg i.p.) and in [4] (30 mg/kg i.p.) was “no effect on the activity of wildtype controls” throughout. In addition, the psychomotor speed entry with patients with MCI is on record as “significant improvements in psychomotor speed”.
Regarding `COC(=O)C(c1ccccc1)C1CCCCN1` (stereo not drawn) [methylphenidate], the “activity levels of wildtype mice” value in the test with wildtype mice was “increasing locomotor activity”. Moreover, the “performance in the RVIP test” value in [8] is “improve performance in the RVIP test”. Besides, the “activity levels / hyperactivity” value in the test on coloboma mice (Cm/+) is recorded as “failed to normalize the hyperactivity”.

The record behind these values is US20050187196A1, “Treatment of attention disorders” (Saegis Pharmaceuticals, Inc., priority 2004, published 2005).
